The target of one data set is Tau (Homo sapiens, UniProt P10636). The data set is described as follows: Tau competition binding in human AD brain homogenate with 18F-labeled Tau binder. The following applies: for Binding affinity for Tau (in words): IC50 determined in AD brain homogenate, compared with 3a. How it is done: (§1) 20 μg of human Alzheimer disease brain homogenate was incubated with a dilution series of each test compound (1000 to 0.06 nM) in the presence of 800 Bq of ^18F-labeled Tau binder. The samples were shaken at 110 rpm for 45 min at 37° C. Samples were then filtered through GF/B 96 well filter plates and washed twice with 300 μL assay buffer (PBS containing 0.1% BSA and 2% DMSO). Thereafter, filter plates were sealed and a Fuji Film Imaging Plate (BAS-SR2025) was placed on top. The imaging plate was analyzed after overnight exposition using a Fuji Film BAS-5000. Non-specific signal was determined with samples containing ^18F-labeled Tau-reference binder in the presence of assay buffer without brain substrate and competitor. […] The unblocked ^18F-labeled Tau-binder signal was defined as total binding. IC50 values were calculated by Prism V6 (GraphPad) setting total binding to 100%.

Data set [1] can be described thus: PK studies in healthy mice (PET). It counts as in vivo, NMRI mice. The following applies: 18F tracer; for Mouse PK Uptake: brain; for Mouse PK Washout: ratio of uptake peak/30 min; for Mouse PK De-fluorination: bone uptake, footnote f: no de-fluorination detected. How it is done: NMRI mice (weight range 25-35 g) were injected intravenously with the ^18F-labeled compounds. Up to 150 μL of 1×PBS solution with 10%-15% EtOH or dilution medium ([…]) containing the ^18F-labeled compound (2-10 MBq) were injected. Anesthesia with isoflurane was induced before injection of the tracer and maintained during the image acquisition period. PET scans were performed using a SIEMENS INVEON small animal PET/CT scanner (Siemens, Knoxville, Tenn.). PET acquisition was started immediately before the radioactive dose was injected into the animal through the tail vein. Images were generated as dynamic scans for 60 minutes.
The peak uptake in the brain was set to 100% and washout curves were generated to evaluate the clearance of the activity from the normal brain (FIG. 2).

The target in data set [2] is T1, MAO A (Mus musculus, UniProt Q64133).
T1 construct: from tissue; host or cells: whole mouse brain homogenate
T1 sequence (Q64133 1-526): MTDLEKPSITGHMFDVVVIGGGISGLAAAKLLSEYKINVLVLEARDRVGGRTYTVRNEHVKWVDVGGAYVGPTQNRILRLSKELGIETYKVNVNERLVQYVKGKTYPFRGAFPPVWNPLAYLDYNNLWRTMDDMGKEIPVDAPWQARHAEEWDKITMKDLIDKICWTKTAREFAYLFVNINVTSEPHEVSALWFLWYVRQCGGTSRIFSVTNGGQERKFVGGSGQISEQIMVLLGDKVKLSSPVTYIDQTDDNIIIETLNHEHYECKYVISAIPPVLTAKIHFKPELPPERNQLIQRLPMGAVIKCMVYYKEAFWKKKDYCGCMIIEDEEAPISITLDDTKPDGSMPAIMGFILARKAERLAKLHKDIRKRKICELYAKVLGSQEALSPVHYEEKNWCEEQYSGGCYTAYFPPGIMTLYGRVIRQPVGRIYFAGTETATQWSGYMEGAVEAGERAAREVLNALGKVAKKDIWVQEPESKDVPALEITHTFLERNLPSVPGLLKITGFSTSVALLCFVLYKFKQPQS
The data set is described as follows: MAO A 18F-FEH competition assay in mouse brain homogenate. It is filed as binding. As to conditions: for Selectivity over MAO A (in words): compared with 3a.

Data set [3] concerns the target T2, MAO A (Homo sapiens, UniProt P21397).
T2 construct: 20 μg of human brain homogenate (without AD pathology); from tissue; host or cells: human brain homogenate without AD pathology (healthy control)
T2 sequence (P21397 1-527): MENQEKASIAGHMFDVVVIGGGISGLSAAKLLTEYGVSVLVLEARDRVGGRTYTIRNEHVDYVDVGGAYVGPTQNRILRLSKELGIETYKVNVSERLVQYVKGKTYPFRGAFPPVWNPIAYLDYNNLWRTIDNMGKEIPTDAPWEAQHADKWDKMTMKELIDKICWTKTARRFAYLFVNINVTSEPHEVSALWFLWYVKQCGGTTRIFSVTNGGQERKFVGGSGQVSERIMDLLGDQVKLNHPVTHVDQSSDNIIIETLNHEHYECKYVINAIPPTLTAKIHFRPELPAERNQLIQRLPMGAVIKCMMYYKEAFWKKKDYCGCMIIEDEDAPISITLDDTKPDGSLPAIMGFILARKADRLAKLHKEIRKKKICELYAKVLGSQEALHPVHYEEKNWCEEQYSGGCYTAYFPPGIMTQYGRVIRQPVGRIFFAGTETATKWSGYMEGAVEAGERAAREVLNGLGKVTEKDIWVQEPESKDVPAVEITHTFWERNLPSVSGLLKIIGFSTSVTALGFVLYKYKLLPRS
The data set is described as follows: MAO A FEH competition assay in human HC brain homogenate. It counts as binding. The following applies: human healthy control brain homogenate; FEH competition. How it is done:
as §1, with “human” for “human Alzheimer disease”, “homogenate (without AD pathology)” for “homogenate”, “MAO-A binder ([^18F]fluoroethyl harmine, FEH).” for “Tau binder.”, “FEH” for “Tau-reference binder”, “FEH” for “Tau-binder”

The target of a further data set is amyloid-beta (Homo sapiens, UniProt P05067). The data set can be described thus: Binding affinity to amyloid-beta in AD brain homogenate. As to conditions: human AD brain homogenate; non-radioactive derivatives. How it is done: as §1, with “beta-amyloid” for “Tau”, “beta-amyloid” for “Tau-reference”, “beta-amyloid binder” for “Tau-binder”
In another data set the target is T3, MAO B (Homo sapiens, UniProt P27338).
T3 construct: 20 μg of human brain homogenate (without AD pathology); from tissue; host or cells: human brain homogenate without AD pathology (healthy control)
T3 sequence (P27338 1-520): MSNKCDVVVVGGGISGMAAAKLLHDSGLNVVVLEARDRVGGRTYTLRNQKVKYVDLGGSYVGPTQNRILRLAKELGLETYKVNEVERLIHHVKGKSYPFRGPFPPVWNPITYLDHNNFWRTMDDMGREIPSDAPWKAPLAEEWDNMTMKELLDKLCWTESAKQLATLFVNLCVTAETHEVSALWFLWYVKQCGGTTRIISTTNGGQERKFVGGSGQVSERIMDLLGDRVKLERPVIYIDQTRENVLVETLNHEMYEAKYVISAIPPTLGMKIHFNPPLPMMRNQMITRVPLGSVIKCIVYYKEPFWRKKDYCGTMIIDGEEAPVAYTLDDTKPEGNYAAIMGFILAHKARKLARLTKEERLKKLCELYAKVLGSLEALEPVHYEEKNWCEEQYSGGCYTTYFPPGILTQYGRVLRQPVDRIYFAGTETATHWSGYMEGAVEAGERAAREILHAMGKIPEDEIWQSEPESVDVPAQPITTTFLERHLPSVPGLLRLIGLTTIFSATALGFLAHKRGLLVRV
The data set can be described thus: MAO B 18F-fluoro deprenyl competition assay in human HC brain homogenate. It is filed as binding. The procedure: The samples were shaken at 110 rpm for 45 min at 37° C. Samples were then filtered through GF/B 96 well filter plates and washed twice with 300 μL assay buffer (PBS containing 0.1% BSA and 2% DMSO). Thereafter, filter plates were sealed and a Fuji Film Imaging Plate (BAS-SR2025) was placed on top. The imaging plate was analyzed after overnight exposition using a Fuji Film BAS-5000. […] IC50 values were calculated by Prism V6 (GraphPad) setting total binding to 100%.

Setting [4] is: IC50 in AD brain homogenate, non-radioactive fluorine-19 derivatives, read-out: high Tau binding.
The mark [5] stands for this setting: grade, AD brain homogenate, non-radioactive fluorine-19 derivatives, read-out: high Tau binding.
The mark [6] stands for this setting: IC50 in mouse brain homogenate, fluorine-19 derivatives, read-out: low MAO A binding.
Setting [7] is: grade, IC50 in mouse brain homogenate, fluorine-19 derivatives, read-out: low MAO A binding.
The mark [8] stands for this setting: human AD brain homogenate, determined with non-radioactive F-1, F-2, F-3a, read-out: IC50 for tau binding in AD brain homogenate.
[9] abbreviates: 18F-FEH competition, non-radioactive derivatives, read-out: IC50 MAO A in mouse brain homogenate.

pIC50: −log10 of the molar value. Several values for one entry are separate records, joined by “and”; a condition that tells them apart may be missing. Identical values can stand only once. Like-named read-outs stand apart in the source and are kept apart here.

As a reminder, the IC50 is the concentration that gives 50% inhibition.

Sequence of Tau (P10636 623-708 limits assumed): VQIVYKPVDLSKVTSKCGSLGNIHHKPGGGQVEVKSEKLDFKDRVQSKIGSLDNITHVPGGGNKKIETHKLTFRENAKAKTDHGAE
Sequence of amyloid-beta (P05067 672-711 limits assumed): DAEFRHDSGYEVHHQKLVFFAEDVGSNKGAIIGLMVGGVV

As for `Fc1cnccc1-c1ccc2c(n1)[nH]c1ccncc12` [Example F-3b], the pIC50 at Tau (setting [4]) was above 8.30; at Tau (setting [5]), above 8.30; on MAO A [2] (setting [6]), 6.12. Further, the “Mouse PK Uptake” value in data set [1] is recorded as “(4.0% ID/g)”. Moreover, the “Mouse PK Washout” value in data set [1] is reported as “(19.4)”.

As to `Fc1ccncc1-c1ccc2c(n1)[nH]c1ccncc12` [Example F-6], the “Binding affinity for Tau (in words)” value at Tau is given as “poor”. The pIC50 at Tau (setting [4]) was 7.37. For the same compound, in data set [1], the “Mouse PK De-fluorination” value is on record as “(4.8% ID/g)”, the “Mouse PK Uptake” value is listed as “(8.2% ID/g)” and the “Mouse PK Washout” value was “(14.5)”. Moreover, the pIC50 at MAO A [2] (setting [6]) was below 6.00. Moreover, the pIC50 on MAO A [2] (setting [7]) is below 6.00.

Regarding `Fc1ccnc(-c2ccc3c(n2)[nH]c2ccncc23)c1` [Example F-9], the “Binding affinity for Tau (in words)” value on Tau is listed as “inferior”. The pIC50 on Tau (setting [4]) was 8.08; at MAO A [2] (setting [6]) it was below 6.00; on MAO A [2] (setting [7]), below 6.00.

As for `Fc1ccc(-c2ccc3c(n2)[nH]c2ccncc23)cn1` [Example F-2], the pIC50 was above 8.30 at Tau (setting [4]); above 8.30 on Tau (setting [5]); above 8.70 on Tau (setting [8]); 7.00 at MAO A [3]; below 6.00 at amyloid-beta; 6.32 on MAO A [2] (setting [9]). Further, in data set [1], the “Mouse PK De-fluorination” value is listed as “(6.2% ID/g)”. Moreover, the “Mouse PK Uptake” value in data set [1] was “(5.7% ID/g)”. Also, the “Mouse PK Washout” value in data set [1] is “(10.9)”. For the same compound, the “Selectivity over MAO A (in words)” value at MAO A [2] was “Inferior”.

Take `Fc1cccc(-c2ccc3c(n2)[nH]c2ccncc23)n1` [Example F-7]: the “Binding affinity for Tau (in words)” value at Tau is reported as “inferior”. The pIC50 on Tau (setting [4]) was 8.15. Besides, in data set [1], the “Mouse PK De-fluorination” value is “(11.1% ID/g)”, the “Mouse PK Uptake” value was “(8.5% ID/g)” and the “Mouse PK Washout” value is reported as “(7.0)”. Further, on MAO A [2] (setting [6]), the pIC50 is 6.57. Moreover, at MAO A [2], the “Selectivity over MAO A (in words)” value was “Inferior”.

For the compound `Fc1ccc(-c2ccc3c(n2)[nH]c2ccncc23)nc1` [Example F-8], the figures for the pIC50 at Tau (setting [4]), on Tau (setting [5]) and at MAO A [2] (setting [6]) were above 8.30, above 8.30 and 7.12, respectively. Also, the “Selectivity over MAO A (in words)” value on MAO A [2] is reported as “Inferior”.

`Fc1cncc(-c2ccc3c(n2)[nH]c2ccncc23)c1` [Example F-5]: the “Binding affinity for Tau (in words)” value on Tau is “inferior”. On Tau (setting [4]), the pIC50 is 8.20. Besides, in data set [1], the “Mouse PK De-fluorination” value is reported as “(2.9% ID/g)”, the “Mouse PK Uptake” value is reported as “(5.3% ID/g)” and the “Mouse PK Washout” value is “(9.6)”. For the same compound, the pIC50 on MAO A [2] (setting [6]) is below 6.00. Moreover, the pIC50 at MAO A [2] (setting [7]) was below 6.00.

As to `Fc1cccnc1-c1ccc2c(n1)[nH]c1ccncc12` [Example F-10], the “Binding affinity for Tau (in words)” value on Tau is given as “poor”. Also, the pIC50 on Tau (setting [4]) is 6.99. Further, in data set [1], the “Mouse PK De-fluorination” value is “(6.2% ID/g)”, the “Mouse PK Uptake” value was “(2.1% ID/g)” and the “Mouse PK Washout” value is “(3.6)”. This compound also came in with a 50% inhibitory concentration (IC50) on MAO A [2] (low MAO A binding [nM], IC50 in mouse brain homogenate, fluorine-19 derivatives) above 1000 nM. This compound showed a pIC50 on MAO A [2] (low MAO A binding, grade, IC50 in mouse brain homogenate, fluorine-19 derivatives) below 6.00.

For `Fc1ccc(-c2ccc3c(c2)[nH]c2ccncc23)cn1` [Example F-1], the pIC50 is above 8.70 at Tau (setting [8]); 6.77 on MAO B; 8.30 on MAO A [3]; below 6.00 at amyloid-beta; 7.66 on MAO A [2] (setting [9]).

Consider `Fc1cc(-c2ccc3c(n2)[nH]c2ccncc23)ccn1` [Example F-3a], for which the pIC50 at Tau (setting [4]) is above 8.30; at Tau (setting [5]), above 8.30; on Tau (setting [8]) it was above 8.70; at MAO A [3] it was 5.96 and 6.28; at amyloid-beta it was below 6.00; at MAO A [2] (setting [9]), 5.85. The pIC50 at MAO A [2] (setting [6]) and on MAO A [2] (setting [7]) was below 6.00 each time. For the same compound, the “Mouse PK De-fluorination” value in data set [1] is reported as “(<0.5% ID/g)^f”. For the same compound, the “Mouse PK Uptake” value in data set [1] is reported as “(4.4-5.9% ID/g) ^”. Also, the “Mouse PK Washout” value in data set [1] was “(11.2-16.6)”.

The values are drawn from patent publication US10835624B2, “Compounds for imaging Tau protein aggregates” (AC IMMUNE S.A., priority 2016, dated 2020).
